Results: PubChem BioAssay (NCI)
Converted amounts (≈) assume the structure as drawn. “And” between values parts separate entries of the source, which are not always exact repeats. Equal values may be shown once.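 Five concentrations, 48 hours, 96-well plates. GI50 = concentration required for 50% inhibition of growth. TGI denotes the concentration required for complete inhibition of growth.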 The source made the active and inactive calls. Cut-off read from the data, not from the text of the source: active = GI50 below about 0.43 µM; inactive = the rest.

Assays:
Assay in all cases: growth of human tumour cells (NCI), 48 h
[1] = test system: MDA-N
[2] = test system: NCI-H23 lung
[3] = test system: EKVX NSCLC
[4] = test system: CAKI-1 renal
[5] = test system: SF-295 CNS
[6] = test system: KM20L2 colon
[7] = test system: SR leukemia
[8] = test system: RXF 393 renal
[9] = test system: OVCAR-3 ovarian
[10] = test system: HOP-92 NSCLC
[11] = test system: MCF7 breast
[12] = test system: NCI-H460 lung
[13] = test system: BT-549 breast
[14] = test system: MDA-MB-231 breast
[15] = test system: T-47D breast
[16] = test system: SN12C renal
[17] = test system: A498 renal
[18] = test system: ACHN renal
[19] = test system: U251 CNS
[20] = test system: TK-10 renal
[21] = test system: SK-MEL-5 melanoma
[22] = test system: M19-MEL melanoma
[23] = test system: K-562 leukemia
[24] = test system: OVCAR-5 ovarian
[25] = test system: PC-3 prostate
[26] = test system: M14 melanoma
[27] = test system: HCT-15 colon
[28] = test system: SF-539 CNS
[29] = test system: HCC-2998 colon
[30] = test system: DU-145 prostate
[31] = test system: HT29 colon
[32] = test system: SNB-19 CNS
[33] = test system: SNB-78 CNS
[34] = test system: UACC-257 melanoma
[35] = test system: DLD-1 colon
[36] = test system: OVCAR-8 ovarian
[37] = test system: NCI-H522 lung
[38] = test system: HL-60(TB) leukemia
[39] = test system: RPMI-8226 leukemia
[40] = test system: NCI-H226 lung
[41] = test system: DMS 273 small cell lung
[42] = test system: DMS 114 small cell lung
[43] = test system: CCRF-CEM leukemia
[44] = test system: MOLT-4 leukemia
[45] = test system: HOP-62 NSCLC
[46] = test system: KM12 colon
[47] = test system: HS 578T breast
[48] = test system: UO-31 renal
[49] = test system: HOP-18 NSCLC
[50] = test system: SK-MEL-28 melanoma
[51] = test system: IGROV1 ovarian
[52] = test system: UACC-62 melanoma
[53] = test system: 786-0 renal
[54] = test system: COLO 205 colon
[55] = test system: LXFL 529 NSCLC
[56] = test system: LOX IMVI melanoma
[57] = test system: MDA-MB-435
[58] = test system: MALME-3M melanoma
[59] = test system: SW-620 colon
[60] = test system: SF-268 CNS
[61] = test system: SK-MEL-2 melanoma
[62] = test system: OVCAR-4 ovarian

COc1c(O)c2c(c3cc(C(=O)N4CCc5c4c(O)c(OC)c4[nH]c(C(=O)N6CC7CC78C6=CC(=O)c6[nH]cc(C)c68)cc54)[nH]c13)CCN2C(N)=O (stereo not given)
TGI [1]: 22300 nM | TGI [2]: 2.42 nM | GI50 [3]: 0.00694 µg/mL (≈ 0.00986 µM) | TGI [3]: > 100 µM and 0.0904 µg/mL | TGI [4]: 5.31 nM and > 100 µM and 0.00582 µg/mL | GI50 [5]: 0.00174 µg/mL (≈ 0.00247 µM) | TGI [5]: 4.8 nM and 0.00618 µg/mL | TGI [6]: 18.1 nM | outcome [6]: inactive | TGI [7]: > 100 µM and 0.0804 µg/mL | GI50 [8]: 0.0282 µg/mL (≈ 0.0401 µM) | TGI [8]: 447 nM and 0.0456 µg/mL | TGI [9]: 48.6 nM and > 100 µM and 0.0456 µg/mL | GI50 [10]: 0.0081 µg/mL (≈ 0.0115 µM) | TGI [10]: 28.8 nM and 0.0401 µg/mL | TGI [11]: 397 nM | TGI [12]: 1.83 nM and 137 nM and 0.00377 µg/mL | TGI [13]: 5010 nM | TGI [14]: > 100000 nM | TGI [15]: 40000 nM | TGI [16]: 5.75 nM and 3.41 µM and 0.103 µg/mL | TGI [17]: 6.94 nM and 247 nM and 0.0354 µg/mL | TGI [18]: 14.2 nM | TGI [19]: 2.66 nM and 305 nM and 0.00324 µg/mL | GI50 [20]: 0.0259 µg/mL (≈ 0.0368 µM) | TGI [20]: 222 nM and 0.0678 µg/mL | TGI [21]: 27.9 nM and 400 nM and 0.00964 µg/mL | GI50 [22]: 0.0165 µg/mL (≈ 0.0235 µM) | TGI [22]: 14.8 nM and 0.041 µg/mL | TGI [23]: 21.8 µM and 0.0594 µg/mL | GI50 [24]: 0.0152 µg/mL (≈ 0.0216 µM) | TGI [24]: 0.0519 µg/mL (≈ 0.0737 µM) | TGI [25]: 10000 nM | GI50 [26]: 172 nM | GI50 [27]: 157 nM | TGI [28]: 12.1 nM and 897 nM and 0.007 µg/mL | GI50 [29]: 173 nM | TGI [29]: 174 nM and 1020 nM | TGI [30]: > 100000 nM | GI50 [31]: 2.54 nM | TGI [32]: 76.8 nM and 3.69 µM and 0.185 µg/mL | GI50 [33]: 0.0117 µg/mL (≈ 0.0166 µM) | TGI [33]: 0.0534 µg/mL (≈ 0.0759 µM) | GI50 [34]: 1340 nM | GI50 [35]: 0.00341 µg/mL (≈ 0.00485 µM) | TGI [36]: 2.65 nM | GI50 [37]: 0.0168 µg/mL (≈ 0.0239 µM) | TGI [37]: 48.3 nM and 0.0372 µg/mL | GI50 [38]: 0.007 µg/mL (≈ 0.00995 µM) | TGI [38]: 0.0439 µg/mL (≈ 0.0624 µM) | TGI [39]: 313 nM and 11.9 µM and 0.159 µg/mL | TGI [40]: 1.47 nM and 276 nM and 0.0163 µg/mL | GI50 [41]: 0.00198 µg/mL (≈ 0.00282 µM) | TGI [41]: 7.18 nM and 0.0106 µg/mL | GI50 [42]: 0.00276 µg/mL (≈ 0.00392 µM) | TGI [42]: 15.1 nM and 0.0121 µg/mL | GI50 [43]: 0.00439 µg/mL (≈ 0.00624 µM) | TGI [43]: 963 nM and 0.0344 µg/mL | GI50 [44]: 0.00642 µg/mL (≈ 0.00912 µM) | TGI [44]: 456 nM and 0.0737 µg/mL | GI50 [45]: 2.51 nM and 0.0165 µg/mL | TGI [45]: 14.6 nM and 0.0745 µg/mL | TGI [46]: 9.37 nM and 929 nM and 0.0348 µg/mL | TGI [47]: 3410 nM | GI50 [48]: 223 nM | GI50 [49]: 12.6 nM | TGI [49]: 85.6 nM | outcome [49]: inactive | GI50 [50]: 354 nM | GI50 [51]: 10800 nM | TGI [51]: > 100000 nM | TGI [52]: 5.3 nM and 688 nM and 0.00323 µg/mL | GI50 [53]: 29.3 nM | TGI [54]: 3.83 nM and 5.18 µM and 0.00504 µg/mL | TGI [55]: 32.9 nM | outcome [55]: inactive | TGI [56]: 2.61 nM and 287 nM and 0.00412 µg/mL | TGI [57]: 783 nM | TGI [58]: 5.23 nM and 1.02 µM and 0.00419 µg/mL | TGI [59]: 3.46 nM and 456 nM and 0.0038 µg/mL | TGI [60]: 47.4 nM and > 100 µM and 0.00521 µg/mL | GI50 [61]: 0.0187 µg/mL (≈ 0.0266 µM) | TGI [61]: 0.0349 µg/mL (≈ 0.0495 µM) | GI50 [62]: 420 nM and 0.0198 µg/mL | TGI [62]: 2.91 µM and 0.0729 µg/mL
